Values after ≈ are worked out from the molar mass of the structure shown.
Tests used:
[1] = Protein binding in mouse brain assessed as unbound fraction at 1 uM incubated for 4 hrs by LC-MS analysis; format: ADME, tissue-based
[2] = target: Insulin-like growth factor 1 receptor (Homo sapiens, UniProt P08069); test: Inhibition of IGF1R (unknown origin)
[3] = target: Tyrosine-protein kinase SYK (Homo sapiens, UniProt P43405); test: Inhibition of SYK (unknown origin)
[4] = target: AP2-associated protein kinase 1 (Homo sapiens, UniProt Q2M2I8); test: Inhibition of AAK1 (unknown origin)
AP2-associated protein kinase 1, sequence (Q2M2I8 whole entry): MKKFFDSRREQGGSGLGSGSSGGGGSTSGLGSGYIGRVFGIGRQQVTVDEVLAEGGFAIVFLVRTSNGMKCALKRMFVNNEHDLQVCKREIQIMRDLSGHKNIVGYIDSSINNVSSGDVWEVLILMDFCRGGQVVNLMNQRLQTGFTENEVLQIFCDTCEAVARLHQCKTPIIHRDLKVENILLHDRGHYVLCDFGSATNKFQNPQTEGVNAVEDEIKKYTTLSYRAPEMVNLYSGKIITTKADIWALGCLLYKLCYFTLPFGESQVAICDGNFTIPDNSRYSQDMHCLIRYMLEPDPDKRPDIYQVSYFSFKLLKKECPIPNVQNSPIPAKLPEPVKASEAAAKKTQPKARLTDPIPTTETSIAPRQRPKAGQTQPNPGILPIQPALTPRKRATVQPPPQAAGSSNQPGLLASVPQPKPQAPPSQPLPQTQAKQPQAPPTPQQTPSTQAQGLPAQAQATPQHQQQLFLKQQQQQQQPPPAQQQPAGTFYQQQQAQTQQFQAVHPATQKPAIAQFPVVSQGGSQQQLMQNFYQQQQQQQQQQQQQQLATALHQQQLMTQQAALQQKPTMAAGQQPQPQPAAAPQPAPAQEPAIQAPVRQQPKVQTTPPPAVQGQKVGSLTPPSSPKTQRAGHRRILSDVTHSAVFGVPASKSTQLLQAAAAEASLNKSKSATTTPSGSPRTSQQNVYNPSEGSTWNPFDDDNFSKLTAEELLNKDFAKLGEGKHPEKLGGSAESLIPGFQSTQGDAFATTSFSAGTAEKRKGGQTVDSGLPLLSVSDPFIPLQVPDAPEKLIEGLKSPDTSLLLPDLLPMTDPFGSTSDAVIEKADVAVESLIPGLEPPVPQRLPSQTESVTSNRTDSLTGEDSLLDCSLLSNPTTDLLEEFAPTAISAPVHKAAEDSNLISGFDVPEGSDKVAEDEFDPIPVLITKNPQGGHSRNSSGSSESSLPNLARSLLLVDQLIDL

[5] = Drug uptake in brain of LaFerla 3x transgenic Alzheimer's disease C57BL/6 mouse model at 10 mg/kg, po measured after 5 hrs; format: ADME, organism-based; details: read-out: Drug uptake
[6] = target: Tyrosine-protein kinase BTK (Homo sapiens, UniProt Q06187); test: Inhibition of BTK (unknown origin)
[7] = target: MAP kinase-activated protein kinase 2 (Homo sapiens, UniProt P49137); test: Inhibition of MK2 (unknown origin)
Mus musculus = test: Anti-alzheimer activity against LaFerla 3x transgenic Alzheimer's disease C57BL/6 mouse model assessed as reduction in tau phosphorylation at Ser396 residue in brain at 10 mg/kg, po measured after 5 hrs by ELISA; format: functional
[8] = target: Mast/stem cell growth factor receptor Kit (Homo sapiens, UniProt P10721); test: Inhibition of c-Kit (unknown origin)
[9] = target: Cyclin-dependent kinase 5 (Homo sapiens, UniProt Q00535); test: Inhibition of CDK5 (unknown origin)
Cyclin-dependent kinase 5, sequence (Q00535 whole entry): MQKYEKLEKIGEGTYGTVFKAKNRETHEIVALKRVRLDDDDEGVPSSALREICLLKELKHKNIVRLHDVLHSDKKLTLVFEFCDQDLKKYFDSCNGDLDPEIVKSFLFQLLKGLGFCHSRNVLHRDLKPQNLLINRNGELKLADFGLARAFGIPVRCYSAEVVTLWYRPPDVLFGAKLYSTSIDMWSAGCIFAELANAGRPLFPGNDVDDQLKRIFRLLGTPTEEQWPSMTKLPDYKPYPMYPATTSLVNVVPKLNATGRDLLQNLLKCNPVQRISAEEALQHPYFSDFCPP

[10] = target: Serine/threonine-protein kinase pim-1 (Homo sapiens, UniProt P11309); test: Inhibition of PIM1 (unknown origin)
[11] = Permeability of the compound at 100 uM incubated for 4 hrs at pH 7.4 by PAMPA assay; format: ADME; details: read-out: permeability
Aurora kinase A = Aurora kinase A (Mus musculus, UniProt P97477); test: Inhibition of mouse Aurora kinase A
Aurora kinase A, sequence (P97477 whole entry, canonical isoform): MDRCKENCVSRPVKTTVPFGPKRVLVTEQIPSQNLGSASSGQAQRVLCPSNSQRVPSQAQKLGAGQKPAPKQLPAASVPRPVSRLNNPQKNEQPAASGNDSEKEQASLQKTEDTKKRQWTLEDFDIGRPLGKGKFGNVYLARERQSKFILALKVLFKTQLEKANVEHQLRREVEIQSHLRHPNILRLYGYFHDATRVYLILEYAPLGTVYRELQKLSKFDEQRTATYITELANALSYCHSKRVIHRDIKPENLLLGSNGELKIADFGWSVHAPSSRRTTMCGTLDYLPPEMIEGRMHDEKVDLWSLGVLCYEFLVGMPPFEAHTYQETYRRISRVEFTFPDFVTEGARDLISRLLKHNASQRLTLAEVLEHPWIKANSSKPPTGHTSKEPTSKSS

[12] = target: Casein kinase I isoform alpha (Homo sapiens, UniProt P48729); test: Inhibition of CK1A1 (unknown origin)
[13] = Protein binding in human plasma assessed as unbound fraction at 10 uM incubated for 5 hrs by equilibrium dialysis method; format: ADME, cell-free
[14] = target: Interleukin-1 receptor-associated kinase 4 (Homo sapiens, UniProt Q9NWZ3); test: Inhibition of IRAK4 (unknown origin)
[15] = target: Casein kinase II subunit alpha' (Homo sapiens, UniProt P19784); test: Inhibition of CK2A2 (unknown origin)
[16] = target: Mitogen-activated protein kinase 14 (Homo sapiens, UniProt Q16539); test: Inhibition of MAPK p38-alpha (unknown origin)
[17] = AUC (total) in C57BL/6 mouse at 10 mg/kg, po by LC-MS/MS analysis; format: ADME, organism-based; design: dose 10 mg/kg, route po; details: in vivo
[18] = target: Tyrosine-protein kinase Lck (Homo sapiens, UniProt P06239); test: Inhibition of LCK (unknown origin)
[19] = Volume of distribution at steady state in C57BL/6 mouse at 2 mg/kg, iv by LC-MS/MS analysis; format: ADME, organism-based; details: in vivo, read-out: Vdss
[20] = Metabolic stability in human liver microsomes assessed as parent compound remaining at 0.5 uM measured after 10 mins in presence of NADPH by LC-MS/MS analysis; format: ADME, Microsome; details: read-out: Stability
[21] = target: Glycogen synthase kinase-3 beta (Homo sapiens, UniProt P49841, H355L); test: Displacement of FL-KRREILSRRP[ps]ERYR-NH2 from human recombinant N-terminal His6-tagged GSK-3-beta (14 to 306 residues) H355L mutant expressed in baculovirus-infected Sf21 cells incubated for 20 hrs by fluorescence based analysis
Glycogen synthase kinase-3 beta, sequence (P49841 whole entry, looked up, stated change not applied, the tested form may be a part): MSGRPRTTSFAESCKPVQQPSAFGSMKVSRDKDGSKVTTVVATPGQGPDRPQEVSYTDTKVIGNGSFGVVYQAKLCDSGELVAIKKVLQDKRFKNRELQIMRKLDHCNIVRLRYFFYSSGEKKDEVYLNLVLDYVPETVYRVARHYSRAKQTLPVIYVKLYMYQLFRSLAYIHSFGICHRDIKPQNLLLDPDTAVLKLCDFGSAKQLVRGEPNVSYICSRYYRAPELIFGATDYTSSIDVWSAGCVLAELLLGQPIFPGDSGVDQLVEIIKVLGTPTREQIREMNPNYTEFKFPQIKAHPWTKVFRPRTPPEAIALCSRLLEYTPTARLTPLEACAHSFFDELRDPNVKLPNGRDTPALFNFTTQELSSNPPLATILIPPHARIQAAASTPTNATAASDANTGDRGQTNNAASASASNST

[22] = Clearance in C57BL/6 mouse at 2 mg/kg, iv by LC-MS/MS analysis; format: ADME, organism-based; details: in vivo
[23] = target: Non-receptor tyrosine-protein kinase TYK2 (Homo sapiens, UniProt P29597); test: Inhibition of TYK2 (unknown origin)
Non-receptor tyrosine-protein kinase TYK2, sequence (P29597 whole entry): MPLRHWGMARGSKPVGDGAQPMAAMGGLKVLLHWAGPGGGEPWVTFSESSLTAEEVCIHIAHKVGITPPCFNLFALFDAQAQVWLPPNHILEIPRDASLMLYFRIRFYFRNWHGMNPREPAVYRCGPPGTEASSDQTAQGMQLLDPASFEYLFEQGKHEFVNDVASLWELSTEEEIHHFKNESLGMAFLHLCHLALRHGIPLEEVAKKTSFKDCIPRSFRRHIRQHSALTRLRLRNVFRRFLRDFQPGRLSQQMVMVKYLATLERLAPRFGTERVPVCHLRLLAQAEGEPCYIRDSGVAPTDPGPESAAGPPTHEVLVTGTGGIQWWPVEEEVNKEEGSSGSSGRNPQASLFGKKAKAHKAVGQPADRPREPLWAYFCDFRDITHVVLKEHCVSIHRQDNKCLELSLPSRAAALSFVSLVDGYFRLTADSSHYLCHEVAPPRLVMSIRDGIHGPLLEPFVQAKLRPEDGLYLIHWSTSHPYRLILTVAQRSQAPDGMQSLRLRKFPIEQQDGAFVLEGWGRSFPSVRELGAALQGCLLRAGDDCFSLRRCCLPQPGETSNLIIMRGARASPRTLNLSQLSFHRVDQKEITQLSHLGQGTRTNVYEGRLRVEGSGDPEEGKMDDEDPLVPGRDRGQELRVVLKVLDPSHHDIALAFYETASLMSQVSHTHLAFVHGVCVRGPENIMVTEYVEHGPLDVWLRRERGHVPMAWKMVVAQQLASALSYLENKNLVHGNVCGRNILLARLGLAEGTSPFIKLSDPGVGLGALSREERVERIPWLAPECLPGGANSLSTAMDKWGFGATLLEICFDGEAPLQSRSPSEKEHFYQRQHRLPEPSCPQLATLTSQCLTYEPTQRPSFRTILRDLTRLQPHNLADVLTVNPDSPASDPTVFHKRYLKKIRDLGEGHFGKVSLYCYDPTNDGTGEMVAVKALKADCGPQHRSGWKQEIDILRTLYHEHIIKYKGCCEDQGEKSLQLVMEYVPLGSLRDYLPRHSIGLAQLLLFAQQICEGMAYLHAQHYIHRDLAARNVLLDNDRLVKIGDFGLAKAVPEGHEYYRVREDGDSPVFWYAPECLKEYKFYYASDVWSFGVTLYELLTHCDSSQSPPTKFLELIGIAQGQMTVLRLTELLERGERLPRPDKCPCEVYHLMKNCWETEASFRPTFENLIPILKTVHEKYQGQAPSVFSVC

[24] = Protein binding in rat plasma assessed as unbound fraction at 10 uM incubated for 5 hrs by equilibrium dialysis method; format: ADME, cell-free
[25] = Thermodynamic aqueous solubility of the compound at pH 7.4 incubated for 18 to 24 hrs by HPLC-UV analysis; format: physicochemical; details: aqueous medium, time 18-24 hrs, read-out: Therm_solubility
[26] = target: Casein kinase II subunit alpha (Homo sapiens, UniProt P68400); test: Inhibition of CK2A1 (unknown origin)
[27] = Permeability of the compound from basolateral to apical side in human Caco-2 cells at 3 uM incubated for 2 hrs by LC-MS/MS analysis; format: ADME, cell-based; details: read-out: permeability
[28] = Permeability of the compound at 100 uM incubated for 4 hrs at pH 5.5 by PAMPA assay; format: ADME; details: read-out: permeability
[29] = Permeability of the compound from apical to basolateral side in human Caco-2 cells at 3 uM incubated for 2 hrs by LC-MS/MS analysis; format: ADME, cell-based; details: read-out: permeability
[30] = target: Cyclin-dependent kinase 2 (Homo sapiens, UniProt P24941); test: Inhibition of CDK2 (unknown origin)
[31] = target: Ribosomal protein S6 kinase alpha-1 (Homo sapiens, UniProt Q15418); test: Inhibition of RSK1 (unknown origin)
[32] = target: Platelet-derived growth factor receptor beta (Homo sapiens, UniProt P09619); test: Inhibition of PDGFR-beta (unknown origin)
[33] = target: Glycogen synthase kinase-3 alpha (Homo sapiens, UniProt P49840); test: Displacement of FL-KRREILSRRP[ps]ERYR-NH2 from human recombinant full length GST-tagged GSK-3-alpha expressed in insect cells incubated for 20 hrs by fluorescence based analysis; design: species or system Insect cell
Glycogen synthase kinase-3 alpha, sequence (P49840 whole entry): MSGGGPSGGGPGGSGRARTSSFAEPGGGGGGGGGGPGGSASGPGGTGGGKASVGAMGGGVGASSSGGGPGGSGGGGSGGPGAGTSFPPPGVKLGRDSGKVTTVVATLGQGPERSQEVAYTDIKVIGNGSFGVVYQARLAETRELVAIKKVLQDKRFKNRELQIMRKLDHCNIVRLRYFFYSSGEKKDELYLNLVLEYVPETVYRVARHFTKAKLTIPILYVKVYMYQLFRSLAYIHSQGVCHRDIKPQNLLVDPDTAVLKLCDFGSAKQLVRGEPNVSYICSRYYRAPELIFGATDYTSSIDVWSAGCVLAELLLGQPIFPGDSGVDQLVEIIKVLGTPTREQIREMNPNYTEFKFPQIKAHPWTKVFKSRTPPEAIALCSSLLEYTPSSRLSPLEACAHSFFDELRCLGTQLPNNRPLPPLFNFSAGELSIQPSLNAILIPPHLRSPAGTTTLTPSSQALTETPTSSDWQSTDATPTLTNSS

[34] = target: Tyrosine-protein kinase JAK2 (Homo sapiens, UniProt O60674); test: Inhibition of JAK2 (unknown origin)
[35] = Cmax in C57BL/6 mouse at 10 mg/kg, po by LC-MS/MS analysis; format: ADME, organism-based; design: dose 10 mg/kg, route po; details: in vivo
[36] = Protein binding in mouse plasma assessed as unbound fraction at 10 uM incubated for 5 hrs by equilibrium dialysis method; format: ADME, cell-free
[37] = Oral bioavailability in C57BL/6 mouse at 10 mg/kg by LC-MS/MS analysis; format: ADME, organism-based; details: in vivo
[38] = target: Glycogen synthase kinase-3 (Homo sapiens, UniProt P49840+P49841); test: Inhibition of GSK-3 in human U2OS cells transfected with beta-catenin GFP and 4R1N tau plasmid assessed as inhibition of Tau phosphorylation at Ser396 residues by high-content imaging assay; format: cell-based
[39] = target: Interleukin-1 receptor-associated kinase 1 (Homo sapiens, UniProt P51617); test: Inhibition of IRAK1 (unknown origin)
[40] = Metabolic stability in mouse liver microsomes assessed as parent compound remaining at 0.5 uM measured after 10 mins in presence of NADPH by LC-MS/MS analysis; format: ADME, Microsome; details: read-out: Stability
[41] = Ratio of drug concentration in brain to plasma in LaFerla 3x transgenic Alzheimer's disease C57BL/6 mouse model at 10 mg/kg, po measured after 5 hrs; format: ADME, organism-based; details: read-out: BPR
[42] = Half life in C57BL/6 mouse at 2 mg/kg, iv by LC-MS/MS analysis; format: ADME, organism-based; details: in vivo
Aurora kinase B = Aurora kinase B (Homo sapiens, UniProt Q96GD4); test: Inhibition of Aurora kinase B (unknown origin)
Aurora kinase B, sequence (Q96GD4 whole entry): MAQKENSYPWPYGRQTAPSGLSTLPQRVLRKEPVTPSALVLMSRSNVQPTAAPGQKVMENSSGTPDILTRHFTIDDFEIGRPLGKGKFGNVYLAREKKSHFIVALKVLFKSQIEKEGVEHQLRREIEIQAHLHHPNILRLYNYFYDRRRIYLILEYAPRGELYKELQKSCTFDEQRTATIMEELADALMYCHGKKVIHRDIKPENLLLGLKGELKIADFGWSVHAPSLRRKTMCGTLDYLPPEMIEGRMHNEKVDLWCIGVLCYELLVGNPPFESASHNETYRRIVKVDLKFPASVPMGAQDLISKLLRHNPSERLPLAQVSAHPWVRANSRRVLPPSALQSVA

[43] = target: Protein kinase C theta type (Homo sapiens, UniProt Q04759); test: Inhibition of PKC theta (unknown origin)
Protein kinase C theta type, sequence (Q04759 whole entry): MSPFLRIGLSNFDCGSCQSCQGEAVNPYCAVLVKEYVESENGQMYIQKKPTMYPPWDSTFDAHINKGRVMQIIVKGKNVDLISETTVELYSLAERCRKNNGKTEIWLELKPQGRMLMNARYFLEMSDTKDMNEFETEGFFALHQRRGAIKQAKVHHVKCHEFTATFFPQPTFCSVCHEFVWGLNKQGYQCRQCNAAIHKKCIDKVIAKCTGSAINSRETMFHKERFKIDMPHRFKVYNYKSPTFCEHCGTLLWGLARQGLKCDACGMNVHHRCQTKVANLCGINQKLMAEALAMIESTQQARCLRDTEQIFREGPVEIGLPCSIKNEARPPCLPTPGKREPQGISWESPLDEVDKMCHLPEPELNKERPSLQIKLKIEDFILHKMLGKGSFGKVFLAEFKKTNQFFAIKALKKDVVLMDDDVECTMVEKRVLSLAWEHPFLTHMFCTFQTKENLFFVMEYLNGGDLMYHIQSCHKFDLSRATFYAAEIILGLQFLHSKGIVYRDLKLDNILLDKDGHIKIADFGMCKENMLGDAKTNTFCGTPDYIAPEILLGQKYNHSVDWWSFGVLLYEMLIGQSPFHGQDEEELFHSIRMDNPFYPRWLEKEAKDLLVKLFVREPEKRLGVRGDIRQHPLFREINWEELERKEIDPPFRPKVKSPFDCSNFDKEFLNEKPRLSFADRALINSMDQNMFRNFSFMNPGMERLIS

[44] = Ratio of unbound drug concentration in mouse brain to plasma at 10 uM incubated for 5 hrs by equilibrium dialysis method; format: ADME, cell-free; details: read-out: K(p,uu,brain)
[45] = target: Tyrosine-protein kinase JAK1 (Homo sapiens, UniProt P23458); test: Inhibition of JAK1 (unknown origin)
[46] = MRT in C57BL/6 mouse at 2 mg/kg, iv by LC-MS/MS analysis; format: ADME, organism-based; details: in vivo
[47] = Thermodynamic aqueous solubility of the compound at pH 1 incubated for 18 to 24 hrs by HPLC-UV analysis; format: physicochemical; details: aqueous medium, time 18-24 hrs, read-out: Therm_solubility
[48] = Plasma concentration in LaFerla 3x transgenic Alzheimer's disease C57BL/6 mouse model at 10 mg/kg, po measured after 5 hrs; format: ADME, organism-based
[49] = Metabolic stability in rat liver microsomes assessed as parent compound remaining at 0.5 uM measured after 10 mins in presence of NADPH by LC-MS/MS analysis; format: ADME, Microsome; details: read-out: Stability

## N#Cc1ccc(Nc2nccc(C(=O)Nc3cnccc3-c3ccc(F)cc3)n2)cc1
[1]
  fraction unbound at 4 h, 1 µM: 0.012
[2]
  IC50: 17 µM
[3]
  IC50: > 50 µM
[4]
  IC50: > 2 µM
[5]
  concentration at 5 h: 370 nM
[6]
  IC50: 13 µM
[7]
  IC50: > 50 µM
Mus musculus
  inhibition in vivo at 10 mg/kg: 33%
[8]
  IC50: 5.6 µM
[9]
  IC50: 1.3 µM
[10]
  IC50: 0.72 µM
[11]
  Papp at 4 h, 100 µM: 84 ×10⁻⁶ cm/s
Aurora kinase A
  IC50: 17 µM
[12]
  IC50: > 2 µM
[13]
  fraction unbound at 5 h, 10 µM: 0.011
[14]
  IC50: > 50 µM
[15]
  IC50: > 2 µM
[16]
  IC50: 23 µM
[17]
  AUC: 24.3 µM·h
[18]
  IC50: > 2 µM
[19]
  Vd: 5.4 L/kg
[20]
  remaining at 10 min, 0.5 µM: 79%
[21]
  IC50: 0.00035 µM
[22]
  clearance: 23.3 mL/min/kg
[23]
  IC50: > 50 µM
[24]
  fraction unbound at 5 h, 10 µM: 0.019
[25]
  solubility thermodynamic: < 1 µg/mL
[26]
  IC50: > 50 µM
[27]
  Papp B→A at 2 h, 3 µM: 9.8 ×10⁻⁶ cm/s
[28]
  Papp at 4 h, 100 µM: 121 ×10⁻⁶ cm/s
[29]
  Papp A→B at 2 h, 3 µM: 24.4 ×10⁻⁶ cm/s
[30]
  IC50: 0.22 µM
[31]
  IC50: > 50 µM
[32]
  IC50: 37 µM
[33]
  IC50: 0.00025 µM
[34]
  IC50: 13 µM
[35]
  Cmax: 3500 nM
[36]
  fraction unbound at 5 h, 10 µM: 0.03
[37]
  bioavailability: 100%
[38]
  IC50: 0.01 µM
[39]
  IC50: > 2 µM
[40]
  remaining at 10 min, 0.5 µM: 66%
[41]
  Kp at 5 h: 0.9
[42]
  half-life: 2.5 h
Aurora kinase B
  IC50: 11 µM
[43]
  IC50: 17 µM
[44]
  Kp uu at 5 h, 10 µM: 0.4
[45]
  IC50: 31 µM
[46]
  MRT: 3.9 h
[47]
  solubility thermodynamic: 16 µg/mL (≈ 39 µM)
[48]
  concentration at 5 h: 410 nM
[49]
  remaining at 10 min, 0.5 µM: 66%

## O=C(Nc1cnccc1-c1ccc(F)cc1)c1ccnc(Nc2ccc(Cl)cc2)n1
[11]
  Papp at 4 h, 100 µM: 63.9 ×10⁻⁶ cm/s
[13]
  fraction unbound at 5 h, 10 µM: 0.002
[17]
  AUC: 5.8 µM·h
[19]
  Vd: 3.3 L/kg
[20]
  remaining at 10 min, 0.5 µM: 80%
[21]
  IC50: 0.0011 µM
[22]
  clearance: 15.8 mL/min/kg
[24]
  fraction unbound at 5 h, 10 µM: 0.003
[27]
  Papp B→A at 2 h, 3 µM: 2.3 ×10⁻⁶ cm/s
[29]
  Papp A→B at 2 h, 3 µM: 6.4 ×10⁻⁶ cm/s
[33]
  IC50: 0.00088 µM
[35]
  Cmax: 1400 nM
[36]
  fraction unbound at 5 h, 10 µM: 0.004
[37]
  bioavailability: 23%
[38]
  IC50: 0.077 µM
[40]
  remaining at 10 min, 0.5 µM: 79%
[42]
  half-life: 2.9 h
[46]
  MRT: 3.4 h
[49]
  remaining at 10 min, 0.5 µM: 43%
